Assay results taken from patent US8785452B2, “Anti-infective compounds” (priority 2008, dated 2014).
Like-named read-outs stand apart in the source and are kept apart here.

Legend:
[1] = test system: M. tuberculosis H37Rv-GFP; assay: microbe, parasite or virus in culture; type: cell-based; settings: Mycobacterium tuberculosis; for inhibition at 0.2 µM: read-out: QUM Confirm % Inhibition 0.2 uM; for inhibition at 2 µM: read-out: QUM Confirm % Inhibition 2 uM; for inhibition at 20 µM: read-out: QUM Confirm % Inhibition 20 uM
Raw264.7 cells = assay: Cell number (CellNb) from image analysis of the phenotypic cell-based assay
[2] = test system: M. tuberculosis H37Rv-GFP; assay: microbe, parasite or virus in culture; type: cell-based, Mycobacterium tuberculosis; settings: Mycobacterium tuberculosis, H37RV, Macrophage; for inhibition at 0.2 µM: read-out: QIM Confirm % Inhibition 0.2 uM; for inhibition at 2 µM: read-out: QIM Confirm % Inhibition 2 uM
[3] = confirmation, 0.2 uM, intracellular
[4] = confirmation, 2 uM, intracellular
[5] = confirmation, 20 uM, read-out: QIM Confirm % Inhibition 20 uM
[6] = primary screen, 20 μM, read-out: Primary QIM % Inhibition
[7] = read-out: Primary QIM % Inhibition
[8] = read-out: QIM Confirm % Inhibition 20 uM

| SMILES | inhibition at 0.2 µM [1] | inhibition at 2 µM [1] | inhibition at 20 µM [1] | QIM Confirm CellNb 0.2 uM (Raw264.7 cells; confirmation, 0.2 uM) | QIM Confirm CellNb 2 uM (Raw264.7 cells; confirmation, 2 uM) | QIM Confirm CellNb 20 uM (Raw264.7 cells; confirmation, 20 uM) | Primary QIM CellNb (Raw264.7 cells; primary screen, 20 μM) | inhibition at 0.2 µM [2, 3] | inhibition at 2 µM [2, 4] | inhibition at 20 µM [2, 5] | inhibition at 20 µM [2, 6] | Primary QIM CellNb (Raw264.7 cells) | QIM Confirm CellNb 0.2 uM (Raw264.7 cells) | QIM Confirm CellNb 2 uM (Raw264.7 cells) | QIM Confirm CellNb 20 uM (Raw264.7 cells) | inhibition at 20 µM [2, 7] | inhibition at 0.2 µM [2] | inhibition at 2 µM [2] | inhibition at 20 µM [2, 8] |
| --- | --- | --- | --- | --- | --- | --- | --- | --- | --- | --- | --- | --- | --- | --- | --- | --- | --- | --- | --- |
| CN1CCN(c2nc(Nc3ccc(OC(F)(F)F)cc3)nc(OCC(F)(F)F)n2)CC1 [IPK 000 008 12] | 36.5% | 39.7% | 48% | 292.9 | 225.6 | 248.0 | 396.3 | 2.7% | 18.9% | 78.4% | 64.1% | – | – | – | – | – | – | – | – |
| CCCCc1ccc(/C=N/NC(=O)c2ccncc2)cc1 [IPK 000 013 69] | 51.2% | 79.1% | 62.4% | 405.8 | 532.1 | 443.3 | 327.5 | 68.9% | 105% | 58.6% | 91.3% | – | – | – | – | – | – | – | – |
| C/C(=N\NC(N)=S)c1ccc(Cl)cc1 [IPK 000 002 17] | 56.9% | 67.4% | 49.7% | – | – | – | – | – | – | – | – | 235.5 | 472.3 | 541.6 | 249.8 | 26.6% | 54.5% | 70.4% | 24.5% |
| O=[N+]([O-])c1ccc(/C=N/c2ccccc2O)cc1 [IPK 000 040 14] | 38.7% | 46.8% | 68.4% | 321.4 | 262.3 | 330.0 | 95.5 | 20.4% | 15.6% | 18.1% | -38.6% | – | – | – | – | – | – | – | – |
| COc1cccc(OCCNC(=O)c2cc([N+](=O)[O-])cc([N+](=O)[O-])c2)c1 [IPK 000 027 77] | 40.2% | 96.8% | 100% | – | – | – | – | – | – | – | – | 378.0 | 218.1 | 315.3 | 322.3 | 89.1% | -12.6% | 47.7% | 86.3% |
| Clc1ccc(Nc2nc3nonc3nc2Nc2ccc(Cl)cc2)cc1 [IPK 000 003 90] | 44% | 68.8% | 72.7% | 142.3 | 75.6 | 133.4 | 78.0 | 2.2% | 43.2% | 67.9% | 15.7% | – | – | – | – | – | – | – | – |
| O=C(N/N=C/c1cccc(Br)c1)C1C2CC/C=C\CCC21 (centres unmarked) [IPK 000 010 06] | 39.5% | 43.1% | 39.2% | 412.0 | 344.9 | 380.9 | 322.8 | 17.1% | 18% | 81.8% | 81% | – | – | – | – | – | – | – | – |
| O=C1c2ccccc2-c2nc3nonc3nc21 [IPK 000 011 19] | 67.2% | 93.2% | 43.1% | 248.8 | 80.0 | 279.1 | 190.8 | 9.7% | 31.6% | 47.6% | 60% | – | – | – | – | – | – | – | – |
| C/C(=N/NC(=O)c1ccncc1)c1cccs1 [IPK 000 003 01] | 46.4% | 82.8% | 43% | 232.6 | 457.3 | 248.3 | 373.5 | 4.7% | 77.1% | 40.4% | 88.2% | – | – | – | – | – | – | – | – |
| CCOC(=O)c1c(CSc2ccccc2)n(Cc2ccccc2)c2ccc(O)c(CN(C)C)c12 [IPK 000 016 05] | 36.6% | 42.5% | 70% | – | – | – | – | – | – | – | – | 192.0 | 206.8 | 148.9 | 282.0 | 67.9% | -2.2% | 0.8% | 43.4% |
| O=C(N/N=C/c1ccco1)c1ccncc1 [IPK 000 013 67] | 49.4% | 90.2% | 69.7% | – | – | – | – | – | – | – | – | 358.0 | 452.5 | 545.1 | 457.3 | 98.7% | 84.1% | 102% | 66.7% |
| O=C(N/N=C/c1cc(Br)c(Br)o1)c1ccncc1 [IPK 000 009 41] | 28.3% | 59.6% | 99.4% | 257.8 | 488.3 | 446.5 | 345.8 | 19.6% | 92.8% | 99.6% | 92.9% | – | – | – | – | – | – | – | – |
| O=C(NCc1ccc2c(c1)OCO2)c1cc([N+](=O)[O-])cc([N+](=O)[O-])c1 [IPK 000 027 85] | 97.2% | 97.9% | 71.7% | 429.3 | 487.4 | 224.8 | 315.0 | 83% | 99.4% | 40.1% | 100% | – | – | – | – | – | – | – | – |
| CCCSc1nnc(-c2ccc(Cl)cc2Cl)o1 [IPK 000 024 43] | 34.7% | 40.1% | 67.7% | 352.1 | 349.0 | 205.0 | 203.8 | 50.4% | 58.3% | 59.1% | 5.8% | – | – | – | – | – | – | – | – |
| O=C(N/N=C/c1cc(Br)cc(Br)c1O)c1ccncc1 [IPK 000 009 33] | 31.8% | 44.5% | 69.8% | 264.8 | 475.9 | 333.6 | 314.5 | 8.5% | 92.5% | 56.9% | 79.9% | – | – | – | – | – | – | – | – |
| Fc1ccc(Nc2nc3nonc3nc2Nc2ccc(F)cc2)cc1 [IPK 000 003 91] | 46.6% | 41.4% | 76.7% | 220.9 | 148.9 | 128.8 | 63.0 | 2.9% | 36.8% | 76.4% | 31.6% | – | – | – | – | – | – | – | – |
